From patent US11020358B2, “Method for the anti-senescence of and/or rejuvenating stem cells” (GWO XI STEM CELL APPLIED TECHNOLOGY CO., LTD., priority 2014, dated 2021)

How the values were obtained:
ADSCs [1] = experiment: Adipogenic differentiation assay (Oil Red O); type: cell-based, human; conditions: H2O2 group ADSCs (100 μM 2 h), compared to untreated group
Experimental: Four portions of equal volume of the above culture medium containing the sub-cultured ADSCs were separately handled by adding thereinto H2O2 (purchased from Sigma-Aldrich) at a final concentration of 100 μM and reacting for 2 hours to induce senescence of the ADSCs, replacing the culture medium with a fresh culture medium, adding thereinto TC (trans-cinnamaldehyde, purchased from Sigma-Aldrich) at a final concentration of 0, 2, 4 or 6 μM and reacting for 6 hours, so as to obtain “H2O2 group (i.e., treated with H2O2 for 2 hours, but not treated with TC),” “H2O2+TC2 group (i.e., treated with H2O2 for 2 hours and then treated with 2 μM of TC for 6 hours),” “H2O2+TC4 group (i.e., treated with H2O2 for 2 hours and then treated with 4 μM of TC for 6 hours),” and “H2O2+TC6 group (i.e., treated with H2O2 for 2 hours and then treated with 6 μM of TC for 6 hours)” ADSCs. […]
After being photographed, the oil droplets were extracted from the cells in each sample with isopropanol containing 4% Nonidet P-40. The absorbance of the oil droplets at a wavelength of 510 nm (i.e., OD510) of each sample were measured, wherein the absorbance corresponds to the number of cells in orange-red color (i.e., cells present after adipogenic differentiation).

ADSCs [2] = experiment: Microarray analysis of gene expression in ADSCs; type: cell-based, human; conditions: H2O2+TC6 group ADSCs, H2O2 group set as one fold; p < 0.05
Experimental: Four portions of equal volume of the above culture medium containing the sub-cultured ADSCs were separately handled by adding thereinto H2O2 (purchased from Sigma-Aldrich) at a final concentration of 100 μM and reacting for 2 hours to induce senescence of the ADSCs, replacing the culture medium with a fresh culture medium, adding thereinto TC (trans-cinnamaldehyde, purchased from Sigma-Aldrich) at a final concentration of 0, 2, 4 or 6 μM and reacting for 6 hours, so as to obtain “H2O2 group (i.e., treated with H2O2 for 2 hours, but not treated with TC),” “H2O2+TC2 group (i.e., treated with H2O2 for 2 hours and then treated with 2 μM of TC for 6 hours),” “H2O2+TC4 group (i.e., treated with H2O2 for 2 hours and then treated with 4 μM of TC for 6 hours),” and “H2O2+TC6 group (i.e., treated with H2O2 for 2 hours and then treated with 6 μM of TC for 6 hours)” ADSCs. Each of the total cellular RNA of ADSCs of “H2O2 group” and “H2O2+TC6 group” from Experiment (3-1) was handled as follows. […] The products thus obtained are single strand cDNA of these genes. The cDNA was hybridized with a gene chip (Affymetrix GeneChip Human Genome U133 plus 2.0 Array, Affymetrix). Then, the gene chip was scanned and analyzed with a microarray scanner system (Gene Chip® Scanner 3000).

SMILES	cell number after adipogenic differentiation (OD510) (ADSCs [1])	CCND1 gene expression level (ADSCs [2]) [Folds]	E2F6 gene expression level (ADSCs [2]) [Folds]	EIF5 gene expression level (ADSCs [2]) [Folds]	GADD45B gene expression level (ADSCs [2]) [Folds]	NYFA gene expression level (ADSCs [2]) [Folds]	PCNA gene expression level (ADSCs [2]) [Folds]	PIM1 gene expression level (ADSCs [2]) [Folds]	POLR3H gene expression level (ADSCs [2]) [Folds]	SIRT1 gene expression level (ADSCs [2]) [Folds]	hTERT gene expression level (ADSCs [2]) [Folds]	p16 gene expression level (ADSCs [2]) [Folds]	p53 gene expression level (ADSCs [2]) [Folds]
OO [H2O2, reference compound]	significantly reduced	–	–	–	–	–	–	–	–	–	–	–	–
O=C/C=C/c1ccccc1 [TC, trans-cinnamaldehyde]	–	5.8	2.2	3.4	−4.6	7.2	2	−4.4	2.2	2.4	2	−1.8	−1
